According to patent publication US20030092083A1, “Cage antigen” (priority 2001, published 2003):
“Also recorded” adds a separate entry of the source.

Columns and labels:
[1] = test system: CAGE expression in PANC-1 and ACHN cancer cell lines; assay: RT-PCR of CAGE expression after treatment of cancer cell lines that do not express CAGE; assay type: cell-based; settings: various concentrations for 4 days or 2 μM for various time periods
Source text: Many of the known C/T antigen genes are methylated in their promoter regions. […] It is understood that it would be within one of ordinary skill in the art to determine the methylation status of CAGE gene by cloning the promoter sequence of CAGE using any available method such as, but not limited to, genomic inverse PCR.
Next, we investigated whether CAGE gene was methylated. […] For RT-PCR, 5′-[…]-3′ (sense, SEQ ID NO: 11) and 5′-[…]-3′ (antisense, SEQ ID NO: 7) were used. While the mechanism of transcriptional silencing of CAGE in some cancer cell lines may not be clear, it appears that testis-specific expression of CAGE is related at least in part to its demethylation level. In addition, the role of transcription factors in the expression of CAGE gene cannot be ruled out. The absence of transcription factors in other somatic tissues may be responsible for the absence of CAGE expression in these tissues.

CD8+ T cells = assay: IFN-γ ELISPOT assay for measuring CD8+ T cell stimulation; assay type: cell-based, human; settings: 10 μg/ml peptide; CD8+ T cells from PBL of healthy HLA-A2 donors as effector, T2 cells as target, 20 hours
Experimental: With these peptides, we stimulated CD8+ T cells isolated from PBL of healthy donors. The activated CD8+ T cells were incubated with target cells ([…]). The effect of CD8+ T cells on target cells was measured by ELISPOT assay, which detects the amount of IFN-γ released due to activation of CD8+ T cells.
For isolation of PBL, Ficoll-Paque® PLUS (Amersham Pharmacia Biotech) was used. Isolation of PBLs was carried out according to the instruction manual provided by the manufacturer (Amersham Pharmacia Biotech). Briefly, 30 ml of whole blood was mixed with 20 ml of Ficoll-Paque® and centrifuged at 800 g for 20 min. The pellet was transferred to a new tube. 20 ml of PBS buffer was added to the pellet, and centrifuged at 800 g for 10 min. After centrifugation, 10 ml of PBS buffer was added to the pellet. 5 ml of Ficoll-Paque® was added and the contents centrifuged at 800 g for 20 min. 10 ml PBS was added to the pellet for washing, and the contents centrifuged at 800 g for 10 min. Isolated PBLs from healthy donors (HLA-A2 type) were dissolved in RPMI 1640 containing 10% human serum and antibiotics.
For isolation of CD8+ T cells from PBL, CD8 negative isolation kit (DYNAL) was used and isolation was carried out according to the instruction manual provided by the manufacturer. […]

Molecule: Nc1ncn([C@H]2C[C@H](O)[C@@H](CO)O2)c(=O)n1 [5-aza-2′-deoxycytidine]
- induction of CAGE expression (RT-PCR) [1]: induced CAGE expression in both dose and time-dependent manner; also recorded: induced expression of CAGE in dosage and time-dependent manner

Molecule: KMAGELIKI [peptide of CAGE protein, start position 576]
- induction of CD8+ T cells (IFN-γ release, ELISPOT) (CD8+ T cells): showed induction of CD8+ T cells

Molecule: YLMPGFIHL [peptide of CAGE protein, start position 276]
- induction of CD8+ T cells (IFN-γ release, ELISPOT) (CD8+ T cells): showed induction of CD8+ T cells
